# Measurements published in patent US9120744B2, “Plasminogen activator inhibitor-1 inhibitors and methods of use thereof to modulate lipid metabolism” (THE REGENTS OF THE UNIVERSITY OF MICHIGAN, priority 2007, dated 2015).
# Structures can show the parent of a compound that is named as a salt.
# Target: recombinant active human PAI-1 (Homo sapiens (Human), UniProt P05121)
# Experiment: β-trypsin screening assay for PAI-1 inhibitors;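 further: fluorogenic readout with PAI-1 and β-trypsin at 10:1 molar ratio, untreated PAI-1 wells set as 100% PAI-1 activity and β-trypsin alone as 0%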
# Format: biochemical
# Conditions: not given
# Chain of recombinant active human PAI-1 (P05121 24-402): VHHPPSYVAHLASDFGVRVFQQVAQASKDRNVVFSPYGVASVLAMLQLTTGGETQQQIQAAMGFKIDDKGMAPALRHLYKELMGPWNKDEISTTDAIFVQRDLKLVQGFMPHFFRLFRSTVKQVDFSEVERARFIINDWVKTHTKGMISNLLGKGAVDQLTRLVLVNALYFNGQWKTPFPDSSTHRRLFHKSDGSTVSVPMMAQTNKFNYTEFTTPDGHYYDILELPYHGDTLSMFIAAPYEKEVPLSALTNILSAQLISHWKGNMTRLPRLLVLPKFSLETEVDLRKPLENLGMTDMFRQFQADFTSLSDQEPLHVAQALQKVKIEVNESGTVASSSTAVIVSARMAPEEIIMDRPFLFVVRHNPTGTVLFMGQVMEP
row,Molecule,screening hit: restoration of β-trypsin activity
1,CNCC[C@H](Oc1cccc2ccccc12)c1cccs1 [DULOXETINE HCl],demonstrate PAI-1 inhibitor activity
2,CN1[C@@H]2CC[C@H]1C[C@@H](OC(=O)c1c[nH]c3ccccc13)C2.Cl [TROPISETRON HCl],demonstrate PAI-1 inhibitor activity

# Same assay, conditions: 10 μM compound; hit = more than 3 standard deviations above control
row,Molecule,screening hit: restoration of β-trypsin activity
1,CCOC(=O)N1CCC(=C2c3ccc(Cl)cc3CCc3cccnc32)CC1 [LORATADINE],demonstrate PAI-1 inhibitor activity
2,COc1cc(OC)c2c(c1)O[C@H](c1ccc(OC)c(OC)c1)[C@@H](O)C2,demonstrate PAI-1 inhibitor activity
3,COc1c(Cl)c(C)c2c(c1Cl)OC(=O)c1c(C)c(Cl)c(O)c(Cl)c1O2 [DIPLOICIN],demonstrate PAI-1 inhibitor activity
4,CCCCCCCCCOc1ccc2[nH]cc(CCN)c2c1 [5-Nonyloxytryptamine],demonstrate PAI-1 inhibitor activity
5,NCCc1cc(O)c(O)cc1O [OXIDOPAMINE HYDROCHLORIDE],demonstrate PAI-1 inhibitor activity
6,O=c1c(-c2cc(O)c(O)c(O)c2)coc2cc(O)c(O)c(O)c12 [IRIGENOL],demonstrate PAI-1 inhibitor activity
7,NC(=O)N1c2ccccc2CC(=O)c2ccccc21 [OXCARBAZEPINE],demonstrate PAI-1 inhibitor activity
8,NCC1CCC(C(=O)Oc2ccc(CCC(=O)O)cc2)CC1 (centres unmarked) [CETRAXATE HCl],demonstrate PAI-1 inhibitor activity
9,CC1=NCCc2c1[nH]c1cc(O)ccc21.Cl [HARMALOL HYDROCHLORIDE],demonstrate PAI-1 inhibitor activity
10,NCCC(=O)N[C@@H](Cc1c[nH]cn1)C(=O)O [CARNOSINE],demonstrate PAI-1 inhibitor activity
11,CC12CCC3C(CCC4(O)CC(O)CCC34/C=N/NC(N)=O)C1(O)CCC2C1=CC(=O)OC1 (centres unmarked) [STROPHANTHIDIN SEMICARBAZIDE],demonstrate PAI-1 inhibitor activity
12,C=CC1=C(C(=O)O)N2C(=O)[C@@H](NC(=O)C(NOCC(=O)O)c3csc(N)n3)[C@H]2SC1 (some centres unmarked) [CEFIXIME TRIHYDRATE],demonstrate PAI-1 inhibitor activity
13,Oc1c(Cl)cc(Cl)cc1Sc1cc(Cl)cc(Cl)c1O [BITHIONOL],demonstrate PAI-1 inhibitor activity
14,CC(=O)Oc1cc(-c2coc3cc(OC(C)=O)c(OC(C)=O)c(OC(C)=O)c3c2=O)cc(OC(C)=O)c1OC(C)=O [IRIGINOL HEXAACEATATE],demonstrate PAI-1 inhibitor activity
15,O=C1[C@H](CC[C@H](O)c2ccc(F)cc2)[C@@H](c2ccc(O)cc2)N1c1ccc(F)cc1 [EZETIMIBE],demonstrate PAI-1 inhibitor activity
16,"CCOc1ccc(C(=O)c2ccc(O)c(O)c2O)cc1 [2,3,4-TRIHYDROXY-4′-ETHOXYBENZOPHENONE]",demonstrate PAI-1 inhibitor activity
17,CC(CCC(=O)O)[C@H]1CCC2C3CCC4CCCC[C@]4(C)C3CC[C@@]21C (some centres unmarked) [URSOCHOLANIC ACID],demonstrate PAI-1 inhibitor activity
18,c1ccc(-c2ccc(C(c3ccccc3)n3ccnc3)cc2)cc1 (centres unmarked) [BIFONAZOLE],demonstrate PAI-1 inhibitor activity
19,"c1ccc2c(Cc3c[nH]c4ccccc34)c[nH]c2c1 [3,3′-DIINDOLYLMETHANE]",demonstrate PAI-1 inhibitor activity
20,O=c1c(O)cccc2c([C@H]3Oc4cc(O)cc(O)c4C[C@H]3O)cc(O)c(O)c12 [THEAFLAVANIN],demonstrate PAI-1 inhibitor activity
21,Oc1cc(O)c2c(c1)O[C@H](c1cc(O)c(O)c(O)c1)[C@H](O)C2 [EPIGALLOCATECHIN],demonstrate PAI-1 inhibitor activity
22,O=c1cnn([C@H]2O[C@@H](CO)[C@H](O)[C@@H]2O)c(=O)[nH]1 (stereo in doubt) [6-AZAURIDINE],demonstrate PAI-1 inhibitor activity
23,COc1ccccc1/C=C\C(=O)O [COUMARINIC ACID METHYL ETHER],demonstrate PAI-1 inhibitor activity
24,CCN(CC)CCNC(=O)c1ccc(N)cc1 [PROCAINAMIDE HYDROCHLORIDE],demonstrate PAI-1 inhibitor activity
25,CC(C)C[C@H](NC(=O)[C@@H](O)[C@H](N)Cc1ccccc1)C(=O)O [BESTATIN],demonstrate PAI-1 inhibitor activity
26,CHLORAMPHENICOL HEMISUCCINATE,demonstrate PAI-1 inhibitor activity
27,"COc1cc(-c2coc3cc(OCc4ccccc4)c(OC)c(O)c3c2=O)cc(OCc2ccccc2)c1OC [IRIGENIN, DIBENZYL ETHER]",demonstrate PAI-1 inhibitor activity

row,Molecule,screening hit: restoration of β-trypsin activity
1,COc1ccccc1OCCNCC(O)COc1cccc2[nH]c3ccccc3c12 (centres unmarked) [Carvedilol],demonstrate PAI-1 inhibitor activity
2,C[C@]12CCC(=O)C=C1C=C[C@@H]1[C@@H]2CC[C@@]2(C)[C@H]1CC[C@@]21CCC(=O)O1 [CANRENONE],demonstrate PAI-1 inhibitor activity
3,O=c1c(O)cc([C@H]2Oc3cc(O)cc(O)c3C[C@H]2O)cc2c([C@H]3Oc4cc(O)cc(O)c4C[C@H]3O)cc(O)c(O)c12 [THEAFLAVIN],demonstrate PAI-1 inhibitor activity
4,COc1ccc(-c2coc3cc(O)ccc3c2=O)c(O)c1O [KOPARIN],demonstrate PAI-1 inhibitor activity
5,CCOP(=S)(OCC)SCSCC [PHORATE],demonstrate PAI-1 inhibitor activity
6,O=C(O)c1cc(O)c2c(c1)[C@H]([C@H]1c3cc(C(=O)O)cc(O)c3C(=O)c3c(O[C@@H]4O[C@H](CO)[C@@H](O)[C@H](O)[C@H]4O)cccc31)c1cccc(O[C@@H]3O[C@H](CO)[C@@H](O)[C@H](O)[C@H]3O)c1C2=O [SENNOSIDE A],demonstrate PAI-1 inhibitor activity
7,Cl.N[C@H]1C(O)O[C@H](CO)[C@@H](O)[C@@H]1O (some centres unmarked) [GLUCOSAMINE HYDROCHLORIDE],demonstrate PAI-1 inhibitor activity
8,Clc1ccc(CONC(Cn2ccnc2)c2ccc(Cl)cc2Cl)c(Cl)c1.O=[N+]([O-])O (centres unmarked) [OXICONAZOLE NITRATE],demonstrate PAI-1 inhibitor activity
9,C[C@H]1COc2c(C3(N)CC3)c(F)cc3c(=O)c(C(=O)O)cn1c23 [PAZUFLOXACIN],demonstrate PAI-1 inhibitor activity
10,"CCOC(=O)C1(O)Oc2cc(OC)cc(OC)c2C(=O)C1c1ccccc1 (centres unmarked) [2-ETHOXYCARBONYL-2-HYDROXY-5,7-DIMETHOXYISOFLAVANONE]",demonstrate PAI-1 inhibitor activity
11,N=C1C=CC(=C(c2ccc(N)cc2)c2ccc(N)cc2)C=C1 [PARAROSANILINE PAMOATE],demonstrate PAI-1 inhibitor activity
12,"COc1ccc(CCN(C)CCC[C@](C#N)(c2ccc(OC)c(OC)c2)C(C)C)cc1OC [Benzeneacetonitrile, Alpha-[3-[[2-(3,4-dimethoxyphenyl)ethyl]methylamino]propyl]-3,4-dimethoxy-Alpha-(1-methylethyl)-, (R)-]",demonstrate PAI-1 inhibitor activity
13,O=C(O)C1CC([C@@H]2CCCCN2)CN2CCCCC12 (some centres unmarked) [APHYLLIC ACID],demonstrate PAI-1 inhibitor activity
14,COc1ccc2c(=O)c(-c3cc4c(cc3OC)OCO4)coc2c1 [CUNEATIN METHYL ETHER],demonstrate PAI-1 inhibitor activity
15,O=C1C=C2CC3(O)COc4c(ccc(O)c4O)C3=C2C=C1O (centres unmarked) [HEMATEIN],demonstrate PAI-1 inhibitor activity
16,CC(=O)Oc1cccc(C(=O)O)c1OC(C)=O [DIPYROCETYL],demonstrate PAI-1 inhibitor activity
17,O=C1Nc2ccc(Cl)cc2[C@@](C#CC2CC2)(C(F)(F)F)O1 [EFAVIRENZ],demonstrate PAI-1 inhibitor activity
18,CC1(C)S[C@@H]2[C@H](NC(=O)[C@H](NC(=O)N3CCNC3=O)c3ccccc3)C(=O)N2[C@H]1C(=O)[O-].[Na+] [AZLOCILLIN SODIUM],demonstrate PAI-1 inhibitor activity
19,CC(C)=CCCC1(C)C=Cc2c(O)c3c(c(CC=C(C)C)c2O1)OC12C(=CC4CC1C(C)(C)OC2(C/C=C(/C)C(=O)O)C4O)C3=O (centres unmarked) [DIHYD[…]],demonstrate PAI-1 inhibitor activity
20,"O=C(OC1Cc2c(O)cc(O)cc2O[C@@H]1c1cc(O)c(O)c(O)c1-c1c([C@@H]2Oc3cc(O)cc(O)c3C[C@@H]2OC(=O)c2cc(O)c(O)c(O)c2)cc(O)c(O)c1O)c1cc(O)c(O)c(O)c1 (some centres unmarked) [2′,2′-BISEPIGAL[…]]",demonstrate PAI-1 inhibitor activity
21,C=C[C@H]1CN2CC[C@H]1C[C@H]2[C@H](OC(=O)OCC)c1ccnc2ccc(OC)cc12 [QUININE ETHYL CARBONATE],demonstrate PAI-1 inhibitor activity
22,CCOc1nc2cccc(C(=O)OC(C)OC(=O)OC3CCCCC3)c2n1Cc1ccc(-c2ccccc2-c2nn[nH]n2)cc1 (centres unmarked) [CANDESARTAN CILEXTIL],demonstrate PAI-1 inhibitor activity
23,O=C(O[C@@H]1Cc2c(O)cc(O)cc2O[C@@H]1c1ccc(O)c(O)c1)c1cc(O)c(O)c(O)c1 [EPICATECHIN MONOGALLATE],demonstrate PAI-1 inhibitor activity
24,Cc1nc(C)c(Cl)c(O)c1Cl [CLOPIDOL],demonstrate PAI-1 inhibitor activity
25,Cc1cc(C(C)(C)C)cc(C)c1CC1=NCCN1 [XYLOMETAZOLINE HYDROCHLORIDE],demonstrate PAI-1 inhibitor activity
26,O=C(O[C@H]1Cc2c(O)cc(O)cc2O[C@H]1c1cc(O)c(=O)c2c(O)c(O)cc([C@@H]3Oc4cc(O)cc(O)c4C[C@@H]3O)c2c1)c1cc(O)c(O)c(O)c1 [THEAFLAVIN MONOGALLATES],demonstrate PAI-1 inhibitor activity
27,C[N+](C)(C)CCOC(N)=O [CARBACHOL],demonstrate PAI-1 inhibitor activity
